{
  "source": "patent US12077503B2",
  "about": "“Substituted cyclic amides and their use as herbicides” (FMC CORPORATION, priority 2015, dated 2024)",
  "type_in_all_cases": "in vivo",
  "key": {"[1]": {"tested_on": "corn (Zea mays)", "assay": "Test A postemergence", "settings": "Zea mays, post-emergence, 240 h, Postemergence, read-out: Corn plant response rating (0 to 100 scale)", "method_in_brief": "(§1)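 Preemergence soil spray on seeded pots or post-emergence spray on 1–2 leaf plants, in loam–sand blend. Greenhouse ~10 d. Visual rating 0–100 against untreated plants.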"}, "[2]": {"tested_on": "ryegrass, Italian (Italian ryegrass, Lolium multiflorum)", "assay": "Test A postemergence", "settings": "Lolium multiflorum, post-emergence, 240 h, Postemergence, read-out: Ryegrass, Italian plant response rating (0 to 100 scale)", "method_in_brief": "as §1"}, "[3]": {"tested_on": "Kochia (Kochia scoparia)", "assay": "Test A postemergence", "settings": "Bassia scoparia, post-emergence, 240 h, Postemergence, read-out: Kochia plant response rating (0 to 100 scale)", "method_in_brief": "as §1"}, "[4]": {"tested_on": "blackgrass (Alopecurus myosuroides)", "assay": "Test A postemergence", "settings": "Alopecurus myosuroides, post-emergence, 240 h, Postemergence, read-out: Blackgrass plant response rating (0 to 100 scale)", "method_in_brief": "as §1"}, "[5]": {"tested_on": "ragweed (common ragweed, Ambrosia elatior)", "assay": "Test A postemergence", "settings": "Ambrosia artemisiifolia, post-emergence, 240 h, Postemergence, read-out: Ragweed plant response rating (0 to 100 scale)", "method_in_brief": "as §1"}, "[6]": {"tested_on": "pigweed (Amaranthus retroflexus)", "assay": "Test A postemergence", "settings": "Amaranthus retroflexus, post-emergence, 240 h, Postemergence, read-out: Pigweed plant response rating (0 to 100 scale)", "method_in_brief": "as §1"}, "[7]": {"tested_on": "wheat (Triticum aestivum)", "assay": "Test A postemergence", "settings": "Triticum aestivum, post-emergence, 240 h, Postemergence, read-out: Wheat plant response rating (0 to 100 scale)", "method_in_brief": "as §1"}, "[8]": {"tested_on": "barnyardgrass (Echinochloa crus-galli)", "assay": "Test A postemergence", "settings": "Echinochloa crus-galli, post-emergence, 240 h, Postemergence", "method_in_brief": "as §1"}, "[9]": {"tested_on": "Galium (catchweed bedstraw, Galium aparine)", "assay": "Test A postemergence", "settings": "Galium, post-emergence, 240 h, Postemergence, read-out: Galium plant response rating (0 to 100 scale)", "method_in_brief": "as §1"}, "[10]": {"tested_on": "giant foxtail (Setaria faberii)", "assay": "Test A postemergence", "settings": "Setaria faberi, post-emergence, 240 h, Postemergence, read-out: Foxtail, Giant plant response rating (0 to 100 scale)", "method_in_brief": "as §1"}, "[11]": {"tested_on": "ryegrass, Italian (Italian ryegrass, Lolium multiflorum)", "assay": "Test A preemergence", "settings": "Lolium multiflorum, pre-emergence, 240 h, 0 to 100 scale where 0 is no effect and 100 is complete control, read-out: Ryegrass, Italian plant response rating", "method_in_brief": "as §1"}, "[12]": {"tested_on": "Kochia (Kochia scoparia)", "assay": "Test A preemergence", "settings": "Bassia scoparia, pre-emergence, 240 h, 0 to 100 scale where 0 is no effect and 100 is complete control, read-out: Kochia plant response rating", "method_in_brief": "as §1"}, "[13]": {"tested_on": "ragweed (common ragweed, Ambrosia elatior)", "assay": "Test A preemergence", "settings": "Ambrosia artemisiifolia, pre-emergence, 240 h, 0 to 100 scale where 0 is no effect and 100 is complete control, read-out: Ragweed plant response rating", "method_in_brief": "as §1"}, "[14]": {"tested_on": "pigweed (Amaranthus retroflexus)", "assay": "Test A preemergence", "settings": "Amaranthus retroflexus, pre-emergence, 240 h, 0 to 100 scale where 0 is no effect and 100 is complete control, read-out: Pigweed plant response rating"}, "[15]": {"tested_on": "barnyardgrass (Echinochloa crus-galli)", "assay": "Test A preemergence", "settings": "Echinochloa crus-galli, pre-emergence, 240 h, 0 to 100 scale where 0 is no effect and 100 is complete control, read-out: Barnyardgrass plant response rating", "method_in_brief": "as §1"}, "[16]": {"tested_on": "giant foxtail (Setaria faberii)", "assay": "Test A preemergence", "settings": "Setaria faberi, pre-emergence, 240 h, 0 to 100 scale where 0 is no effect and 100 is complete control, read-out: Foxtail, Giant plant response rating", "method_in_brief": "as §1"}, "[17]": {"tested_on": "rice (Oryra sativa)", "assay": "Test B flooded paddy test", "settings": "Oryza sativa, 250 g ai/ha, Flood; 0 to 100 scale where 0 is no effect and 100 is complete control; read-out: Rice plant response rating", "method_in_brief": "(§2)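 Compound goes directly into floodwater once pots are flooded 3 cm above soil, targeting plants at two leaves; the water depth is then held for the test duration. Plants sit 13–15 d in a greenhouse and are rated visually, 100 denoting complete control.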"}, "[18]": {"tested_on": "ducksalad (Heteranthera limosa)", "assay": "Test B flooded paddy test", "settings": "Heteranthera limosa, 250 g ai/ha, Flood; 0 to 100 scale where 0 is no effect and 100 is complete control; read-out: Ducksalad plant response rating", "method_in_brief": "as §2"}, "[19]": {"tested_on": "sedge, umbrella (small-flower umbrella sedge, Cyperus difformis)", "assay": "Test B flooded paddy test", "settings": "Cyperus difformis, 250 g ai/ha, Flood; 0 to 100 scale where 0 is no effect and 100 is complete control; read-out: Sedge, Umbrella plant response rating", "method_in_brief": "as §2"}, "[20]": {"tested_on": "barnyardgrass (Echinochloa crus-galli)", "assay": "Test B flooded paddy test", "settings": "Echinochloa crus-galli, 250 g ai/ha, Flood; 0 to 100 scale where 0 is no effect and 100 is complete control; read-out: Barnyardgrass plant response rating", "method_in_brief": "as §2"}, "[21]": {"settings": "125 g ai/ha, visual rating about 10 d after treatment"}, "[22]": {"settings": "31 g ai/ha, 0 is no effect, 100 is complete control"}, "[23]": {"settings": "125 g ai/ha, preemergence, visual injury rating, approximately 10 d"}},
  "data": [
    {"smiles": "Cc1ccc([C@H]2CN(C)C(=O)[C@@H]2C(=O)Nc2ccccc2)cc1", "note": "[Compound 1291]", "values": [
      {"measurement": "plant injury at 125 g/ha", "setting": "[1]; [21]", "result": 30, "unit": "%"},
      {"measurement": "plant injury at 31 g/ha", "setting": "[1]; [22]", "result": 0, "unit": "%"},
      {"measurement": "pest or weed control at 125 g/ha", "setting": "[2]; [21]", "result": 0, "unit": "%"},
      {"measurement": "pest or weed control at 31 g/ha", "setting": "[2]; [22]", "result": 0, "unit": "%"},
      {"measurement": "pest or weed control at 125 g/ha", "setting": "[3]; [21]", "result": 0, "unit": "%"},
      {"measurement": "pest or weed control at 31 g/ha", "setting": "[3]; [22]", "result": 0, "unit": "%"},
      {"measurement": "pest or weed control at 125 g/ha", "setting": "[4]; [21]", "result": 0, "unit": "%"},
      {"measurement": "pest or weed control at 31 g/ha", "setting": "[4]; [22]", "result": 0, "unit": "%"},
      {"measurement": "pest or weed control at 125 g/ha", "setting": "[5]; [21]", "result": 0, "unit": "%"},
      {"measurement": "pest or weed control at 31 g/ha", "setting": "[5]; [22]", "result": 0, "unit": "%"},
      {"measurement": "pest or weed control at 125 g/ha", "setting": "[6]; [21]", "result": 0, "unit": "%"},
      {"measurement": "pest or weed control at 31 g/ha", "setting": "[6]; [22]", "result": 0, "unit": "%"},
      {"measurement": "plant injury at 125 g/ha", "setting": "[7]; [21]", "result": 30, "unit": "%"},
      {"measurement": "plant injury at 31 g/ha", "setting": "[7]; [22]", "result": 0, "unit": "%"},
      {"measurement": "pest or weed control at 125 g/ha", "setting": "[8]; 125 g ai/ha, visual rating about 10 d after treatment, read-out: Barnyardgrass plant response rating (0 to 100 scale, 0 no effect, 100 complete control)", "result": 90, "unit": "%"},
      {"measurement": "pest or weed control at 31 g/ha", "setting": "[8]; 31 g ai/ha, 0 is no effect, 100 is complete control, read-out: Barnyardgrass plant response rating (0 to 100 scale)", "result": 70, "unit": "%"},
      {"measurement": "pest or weed control at 125 g/ha", "setting": "[9]; [21]", "result": 20, "unit": "%"},
      {"measurement": "pest or weed control at 31 g/ha", "setting": "[9]; [22]", "result": 0, "unit": "%"},
      {"measurement": "pest or weed control at 125 g/ha", "setting": "[10]; [21]", "result": 80, "unit": "%"},
      {"measurement": "pest or weed control at 31 g/ha", "setting": "[10]; [22]", "result": 70, "unit": "%"},
      {"measurement": "pest or weed control at 31 g/ha", "setting": "[11]; 31 g ai/ha, Preemergence", "result": 0, "unit": "%"},
      {"measurement": "pest or weed control at 125 g/ha", "setting": "[11]; [23]", "result": 20, "unit": "%"},
      {"measurement": "pest or weed control at 31 g/ha", "setting": "[12]; 31 g ai/ha, Preemergence", "result": 0, "unit": "%"},
      {"measurement": "pest or weed control at 125 g/ha", "setting": "[12]; [23]", "result": 40, "unit": "%"},
      {"measurement": "pest or weed control at 31 g/ha", "setting": "[13]; 31 g ai/ha, Preemergence", "result": 0, "unit": "%"},
      {"measurement": "pest or weed control at 125 g/ha", "setting": "[13]; [23]", "result": 0, "unit": "%"},
      {"measurement": "pest or weed control at 31 g/ha", "setting": "[14]; 31 g ai/ha, Preemergence", "result": 0, "unit": "%"},
      {"measurement": "pest or weed control at 125 g/ha", "setting": "[14]; [23]", "result": 100, "unit": "%"},
      {"measurement": "pest or weed control at 31 g/ha", "setting": "[15]; 31 g ai/ha, Preemergence", "result": 100, "unit": "%"},
      {"measurement": "pest or weed control at 125 g/ha", "setting": "[15]; [23]", "result": 100, "unit": "%"},
      {"measurement": "pest or weed control at 31 g/ha", "setting": "[16]; 31 g ai/ha, Preemergence", "result": 100, "unit": "%"},
      {"measurement": "pest or weed control at 125 g/ha", "setting": "[16]; [23]", "result": 100, "unit": "%"},
      {"measurement": "pest or weed control at 250 g/ha", "setting": "[17]", "result": 30, "unit": "%"},
      {"measurement": "pest or weed control at 250 g/ha", "setting": "[18]", "result": 100, "unit": "%"},
      {"measurement": "pest or weed control at 250 g/ha", "setting": "[19]", "result": 0, "unit": "%"},
      {"measurement": "pest or weed control at 250 g/ha", "setting": "[20]", "result": 90, "unit": "%"}
    ]}
  ]
}
